Laboratory results from patent US20090209474A1, “NOVEL USES FOR DRUGS TARGETING GLUTAMINE SYNTHETASE” (NEWTHERA, priority 2005, published 2009).
“Also recorded” adds a separate entry of the source. Read-outs that look alike come from different tables or passages of the source.

Tests used:
purified sheep brain GS [1] = experiment: Purified sheep brain GS activity (Meister's method, gamma-glutamylhydroxamate formation); type: biochemical; settings: for effect on GS subunit (monomer) activity: in presence of 2β-ME (DTT for tianeptine)
purified sheep brain GS [2] = settings: Rueppel et al., 1972; cited from earlier work
GS [3] = settings: literature (Meister 1985; Eisenberg et al., 2000); cited from earlier work
GS [4] = settings: rat, in vivo
brain GS [5] = biological target: T1, brain GS (Mus musculus, UniProt P15105); settings: i.p. 7 days
T1 sequence (P15105 2-373 limits assumed): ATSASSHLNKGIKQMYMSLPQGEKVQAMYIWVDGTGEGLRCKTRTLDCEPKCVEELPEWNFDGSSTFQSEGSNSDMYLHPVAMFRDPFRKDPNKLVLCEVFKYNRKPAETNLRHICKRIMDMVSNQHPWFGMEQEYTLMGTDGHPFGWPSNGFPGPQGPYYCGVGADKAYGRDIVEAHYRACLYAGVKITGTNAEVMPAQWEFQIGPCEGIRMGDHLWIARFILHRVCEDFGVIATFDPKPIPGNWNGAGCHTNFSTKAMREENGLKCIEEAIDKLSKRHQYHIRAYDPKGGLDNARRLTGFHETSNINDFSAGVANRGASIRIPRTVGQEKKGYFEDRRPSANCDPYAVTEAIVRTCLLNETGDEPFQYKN

Wistar rats [6] = experiment: Forced swimming test in corticosterone-administered rats; type: in vivo
[7] = system: glucocorticoid receptor (GR); experiment: Brain glucocorticoid receptor expression by ELISA in corticosterone-administered rats; type: in vivo, Wistar rats; settings: for brain GR expression: GF 0.1 and 3 mg/kg, MS 0.5, 15 and 45 mg/kg, tianeptine 0.5 mg/kg, versus PCB
GS [8] = biological target: T2, GS (Rattus norvegicus, UniProt P09606); settings: for lung GS activity: versus PCB
T2 sequence (P09606 2-373 limits assumed): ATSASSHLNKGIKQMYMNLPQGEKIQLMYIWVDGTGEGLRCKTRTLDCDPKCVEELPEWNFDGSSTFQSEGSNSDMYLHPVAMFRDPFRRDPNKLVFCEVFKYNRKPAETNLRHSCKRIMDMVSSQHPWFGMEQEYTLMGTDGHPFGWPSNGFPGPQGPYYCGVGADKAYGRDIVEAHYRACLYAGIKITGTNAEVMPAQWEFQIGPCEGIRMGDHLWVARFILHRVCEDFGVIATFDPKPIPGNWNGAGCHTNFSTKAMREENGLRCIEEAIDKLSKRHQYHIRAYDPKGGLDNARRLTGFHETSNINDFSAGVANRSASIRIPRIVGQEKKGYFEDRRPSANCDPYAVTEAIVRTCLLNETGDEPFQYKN

CA3 pyramidal neurons = experiment: Surface of CA3 pyramidal neurons (Golgi) in corticosterone-administered rats; type: in vivo, Wistar rats; settings: 21 days
bacterial GS = bacterial GS (Mycobacterium tuberculosis, UniProt P9WN39); settings: cited from earlier work
Chain of bacterial GS (P9WN39 whole entry): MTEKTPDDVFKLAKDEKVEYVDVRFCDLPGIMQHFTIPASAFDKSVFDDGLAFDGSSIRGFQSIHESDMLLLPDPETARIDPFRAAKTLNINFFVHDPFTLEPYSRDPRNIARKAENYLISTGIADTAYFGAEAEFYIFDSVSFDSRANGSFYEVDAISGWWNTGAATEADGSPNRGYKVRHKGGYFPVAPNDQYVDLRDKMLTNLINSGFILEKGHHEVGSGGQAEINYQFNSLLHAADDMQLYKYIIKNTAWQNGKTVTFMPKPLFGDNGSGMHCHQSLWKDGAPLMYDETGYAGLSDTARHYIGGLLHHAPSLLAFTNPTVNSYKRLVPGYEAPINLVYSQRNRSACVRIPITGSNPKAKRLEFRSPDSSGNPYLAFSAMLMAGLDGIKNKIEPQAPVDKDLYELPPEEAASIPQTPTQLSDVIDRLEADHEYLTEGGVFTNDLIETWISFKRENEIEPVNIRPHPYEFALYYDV

Wistar rats [9] = experiment: Open field task in corticosterone-administered rats; type: in vivo; settings: for resting time in the open field task: day 15, corticosterone 35 mg/kg s.c., versus PCB and Control
pathogenic mycobacteria = settings: cited from earlier work
[10] = Adrenal weight in corticosterone-administered rats; type: in vivo, Wistar rats; settings: 21 days, versus PCB
brain GS [11] = biological target: T1, brain GS; settings: 24 h after single i.p.
rat lung GS protein = settings: cited from earlier work
M. tuberculosis = settings: MS with isoniazid (INH); cited from earlier work
rats [12] = settings: cited from earlier work
Wistar rats [13] = experiment: PTZ-induced seizures; type: in vivo
dogs = settings: based on decreased body weight at higher doses; cited from earlier work
rats [14] = settings: rat, in vivo; cited from earlier work
GS [15] = biological target: T3, GS (Mus musculus, UniProt P15105); type: in vivo, BALB/c mice; parameters: from tissue; host or cells: mouse brain (whole brain, cortex, hippocampus, thalamus/hypothalamus); settings: 24 h after single i.p.; NF 10 and 100 mg/kg, GF 1 mg/kg
T3 sequence (P15105 2-373 limits assumed): as the sequence (P15105 2-373 limits assumed) above
Experimental: Cortex, hippocampi and thalamus/hypothalamus were carefully isolated immediately after euthanasia. Membranes were prepared and the activity of GS determined in these different structures (as mentioned above for the whole brain).

rabbits = settings: rabbit, in vivo; cited from earlier work
GS [16] = biological target: T2, GS; settings: GF 1 mg/kg, tianeptine 10 mg/kg, methyprednisolone 5 mg/kg i.p.
mice [17] = settings: cited from earlier work
rats [18] = settings: rat, in vivo; cited from earlier work; remark: listed apart in the source
[19] = in vivo, cited from earlier work
[20] = Adrenal weight of rats administered methylprednisolone; type: in vivo, Wistar rats
Experimental: Wistar rats were administered during 21 days once a day with methyprednisolone (5 mg/kg i.p.) plus GF (0.001, 0.01, 0.1 mg/kg), NF (1 and 10 mg/kg) or vehicle (PCB; i.p). Twenty-four hours after the last administrations, they were euthanatized. A complete necropsy was performed and main organs weighted.

GS [21] = biological target: T2, GS; type: in vivo, Wistar rats; parameters: Wistar rat brain homogenates were incubated with naftazone; from tissue; host or cells: Wistar rat brain homogenate or membranes; in A19 also liver and lungs
mice [22] = settings: cited from earlier work; remark: listed apart in the source
GS [23] = biological target: T3, GS; settings: 24 h after single i.p.
[24] = day 19, corticosterone 35 mg/kg s.c., versus PCB and Control
[25] = 21 days, versus PCB and Control
[26] = GF 3 mg/kg, tianeptine 15 mg/kg

For `CC(C)NNC(=O)c1ccncc1` [iproniazid, Iproniazid], the “tested on GS activity: ligand or not” value (purified sheep brain GS [1]) is given as “GS ligands”, the “effect on GS subunit (monomer) activity” value (purified sheep brain GS [1]) is given as “inhibit GS activity at “high” concentrations” and the type of competition (purified sheep brain GS [2]) is given as “competes with hydroxylamine on the NH4 site”.

For `CS(=N)(=O)CC[C@H](N)C(=O)O` (stereo partly drawn) [MS, 2-amino-4-(S-methylsulfonimidosyl)butanoic acid], the “nature of the binding to GS” value (GS [3]) is listed as “non-selective, irreversible GS ligand; also recorded: bind GS irreversibly”, the “brain GS expression” value (GS [4]) is listed as “higher” and the “whole brain GS activity” value (brain GS [5]; MS 0.5, 15, 45 mg/kg) is listed as “decreased GS activity proportionally the dose”. The “dose relation of effects on GS activity and GS expression” value (from here on “dose relation of effects”) (brain GS [5]) was “dose-dependent”, the type of competition (purified sheep brain GS [1]) was “competitive with L-glutamine” and the “effect on GS subunit (monomer) activity” value (purified sheep brain GS [1]) was “inhibit GS activity at “high” concentrations”. The “immobility in the forced swimming test” value (Wistar rats [6]; [24]) was “comparable or lower”, the “brain GR expression” value [7] was “higher” and the “dose relation of the increase in GR expression” value ([7]; rat, in vivo) was “proportional to the dose”. For the same molecule, the “lung GS activity” value (GS [8]; 21 days, most rats) was “decrease in lung GS activity”, the “brain GS activity” value (GS [8]; [25]) was “dose-dependent decrease” and the “liver GS activity” value (GS [8]; [25]) was “clear decrease”. The “brain GS activity” value (GS [8]; MS at the and 45 mg/kg doses) was “lowest GS activities”, the “dose with the best protective effects on CA3 pyramidal neurons” value (CA3 pyramidal neurons) was 15 mg/kg and the “greater sensitivity to MS of bacterial GS than of mammalian GS” value (bacterial GS) was 100 fold. The “dose relation of the increase in resting time” value (Wistar rats [9]; day 15) was “proportional to the dose”, the “resting time in the open field task” value (Wistar rats [9]) was “higher” and the “effect on mycobacterium growth” value (pathogenic mycobacteria) was “block the growth”. The adrenal weight [10] was “higher”, the “dose relation of effects” value (brain GS [11]) was “dose-dependent” and the “dose with the highest GS activity” value (brain GS [11]) was 0.312 mg/kg. The “whole brain GS activity” value (brain GS [11]; 0.078-20 mg/kg) was “increase GS activity”, the “augmentation of rat lung GS protein levels” value (rat lung GS protein; MS 100 mg/kg) was 4 fold and the “augmentation of rat lung GS protein levels” value (rat lung GS protein; combination MS 100 mg/kg and dexamethasone 0.5 mg/kg) was 12 fold. For the same molecule, the “reduction of CFU in guinea pig organs below the level attained with INH alone” value (M. tuberculosis) was roughly 1.5 log units.

For `CP(=O)(O)CCC(N)C(=O)O` (racemic) [GF, ammonium 4-[hydroxy (methyl)phosphinoyl]-DL-homoalaninate], the “nature of the binding to GS” value (GS [3]) is given as “selective, irreversible GS ligand; also recorded: bind GS irreversibly”, the “brain GS expression” value (GS [4]) is given as “higher” and the NOAEL (rats [12]; increased kidney weight at 140 ppm) is given as 40 ppm. The NOAEL (rats [12]; rat, in vivo) was 2.1 mg/kg bw/day, the carcinogenicity (rats [12]; rat, in vivo) was “not carcinogenic” and the “seizure occurrence after PTZ administration” value (Wistar rats [13]; GF 0.5, 5, 25 mg/kg, tianeptine 1, 10, 50 mg/kg i.p. 1 h before PTZ 50 mg/kg i.p.) was “decreased seizure occurrence”. For the same molecule, the “dose relation of the effect on seizures” value (Wistar rats [13]; rat, in vivo) was “not dose-dependent”, the NOAEL (dogs) was 4.5 mg/kg bw/day and the “brain GS expression” value (brain GS [5]; [26]) was “increased also GS expression”. The “whole brain GS activity” value (brain GS [5]; [26]) was “increase GS activity”, the “dose relation of effects” value (brain GS [5]) was “dose-dependent” and the “whole brain GS activity at higher doses” value (brain GS [5]; doses above GF 3 mg/kg, tianeptine 15 mg/kg) was “decreased GS activity”. For the same molecule, the type of competition (purified sheep brain GS [1]) was “competitive with L-glutamine”, the “effect on GS activity at “high” concentrations” value (purified sheep brain GS [1]; in absence of 2βME) was “inhibit GS activity at “high” concentrations” and the ““low concentrations” that activate GS activity” value (purified sheep brain GS [1]; in absence of 2βME) was 10^−4 to 10^−11 M. The “effect on GS subunit (monomer) activity” value (purified sheep brain GS [1]) was “inhibit GS activity at “high” concentrations”, the “immobility in the forced swimming test” value (Wistar rats [6]; GF 0.1 mg/kg, tianeptine 0.5 mg/kg) was “clear decrease in immobility” and the “immobility in the forced swimming test” value (Wistar rats [6]; [24]) was “comparable or lower”. The “brain GR expression” value [7] was “higher”, the “NOAEL for maternal and embryo/fetal toxicity” value (rats [14]) was 2.2 mg/kg bw/day and the teratogenicity (rats [14]) was “not teratogenic”. The “GS activity in the thalamus/hypothalamus” value (GS [15]) was “decreased”, the “lung GS activity” value (GS [8]; 21 days, most rats) was “decrease in lung GS activity” and the “brain GS activity” value (GS [8]; [25]) was “dose-dependent decrease”. For the same molecule, the “liver GS activity” value (GS [8]; [25]) was “clear decrease”, the “lung GS activity” value (GS [8]; [26]) was “remained in the same range” and the “NOAEL for maternal and embryo/fetal toxicity” value (rabbits) was 6.3 mg/kg bw/day. The teratogenicity (rabbits) was “not teratogenic”, the “GS activity in the cortex” value (GS [16]) was “Trend to an Decrease” and the “GS activity in the hippocampus” value (GS [16]) was “Increase of GS Activity”. For the same molecule, the “GS activity in the thalamus/hypothalamus” value (GS [16]; 1 h and 24 h after last administration) was “Decreased GS Activity”, the “effects of corticosterone on CA3 pyramidal neurons” value (CA3 pyramidal neurons; GF 15 mg/kg) was “failed to blunt the effects of corticosterone” and the “effects of corticosterone on CA3 pyramidal neurons” value (CA3 pyramidal neurons; GF 0.1 and 3 mg/kg) was “prevent in part the deleterious effects of corticosterone”. For the same molecule, the NOAEL (mice [17]; increased mortality at higher dietary concentrations) was 80 ppm, the NOAEL (mice [17]; mouse, in vivo) was 11 mg/kg bw/day and the carcinogenicity (mice [17]; mouse, in vivo) was “not carcinogenic”. The “dose levels with effects on kidney weight” value (rats [18]) was no less than 0.52 mg/kg bw/day, the “resting time in the open field task” value (Wistar rats [9]) was “higher” and the “effect on mycobacterium growth” value (pathogenic mycobacteria) was “only a very minor inhibitory effect”. For the same molecule, the “part of an oral dose eliminated in the urine” value ([19]; po) was 10-15%, the “main metabolite found in urine and in faeces” value [19] was 3-[hydroxy(methyl)phosphinoyl] propionic acid and the adrenal weight [10] was “higher”. The methylprednisolone-induced adrenal atrophy ([20]; GF 0.001 mg/kg) was “fully prevented”, the adrenal weight ([20]; GF 0.001, 0.01, 0.1 mg/kg, NF 1 and 10 mg/kg, methyprednisolone 5 mg/kg i.p., 21 days, versus PCB) was “higher” and the “dose relation of the effect on adrenal weight” value ([20]; rat, in vivo) was “non dose-dependent effect”. For the same molecule, the “GS activity in the cortex, hippocampus and thalamus/hypothalamus” value (GS [21]; one hour after PTZ administration) was “increased GS activity”, the “dose relation of the effects on GS activity” value (GS [21]; rat, in vivo) was “not proportional to the dose” and the NOAEL (mice [22]; based upon increased plasma potassium at next highest dose) was 80 ppm. For the same molecule, the NOAEL (mice [22]; females) was 19 mg/kg bw/day, the NOAEL (mice [22]; males) was 17 mg/kg bw/day and the “GS activity in the hippocampus” value (GS [23]) was “dose-dependently increased GS activity”. The “GS activity in the thalamus/hypothalamus” value (GS [23]) was “decreased GS activity” and the “GS activity in the cortex” value (GS [23]; GF 0.1, 3, 15 mg/kg, tianeptine 0.5, 15, 45 mg/kg) was “no significant effect”.
